Test system: Arabidopsis etiolated seedlings
Assay: Ethylene response of etiolated seedlings grown on AT plates versus AT plus ACC (root length inhibition)
Type: in vivo, Arabidopsis thaliana
Conditions: 10 uM ACC, 5 days
Experimental: (§1) Phenotypes of 5-day-old etiolated seedlings grown on AT plates in the absence or presence of 10 uM ACC. Data are presented in tabular (A) and graph (B) forms. Ethylene response of 5-day-old etiolated seedlings of WS, Col and two independent quadruple mutant isolates was quantified. Root and hypocotyl lengths of seedlings grown on AT plates versus AT plus 10 uM ACC were measured. Each data point represents the average organ length of 50 or more seedlings plus/minus standard deviation. Fold inhibition was calculated as the ratio of the average organ length in air to that in ACC.
To overcome the redundancy problem, crosses were performed between the mutants in different EDF genes to construct double, triple and quadruple mutant combinations. Mutant genotypes were assayed by PCR. […] Importantly, the observed ethylene insensitivity was more dramatic in the quadruple mutant combinations that involved the strong edf1-1 allele (i.e. edf1-1 edf2-1 edf3-1 edf4-1 and edf1-1 edf2-2 edf3-1 edf4-1), compared to those that included the edf1-2 allele (edf1-2 edf2-1 edf3-1 edf4-1 and edf1-2 edf2-2 edf3-1 edf4-1). The weaker phenotype of the latter quadruple mutant combinations is consistent with the leaky expression of EDF1 in the edf1-2 mutant.
as §1, with “were measured. […] Fold inhibition” for “were measured. Each data point represents the average organ length of 50 or more seedlings plus/minus standard deviation. Fold inhibition”, “in ACC. Similar, yet less dramatic, differences were detected when the hypocotyls of the quadruple and wild-type seedlings were measured.” for “in ACC.”
Arabidopsis thaliana accession Columbia-0 was used for all overexpression studies. […] After 3–4 days in the light at 4 degrees C., the plates were wrapped in foil and kept in a 24 C incubator, after which the phenotypes of seedlings were analyzed. […]

Q: For `NC1(C(=O)O)CC1` [ACC, 1-aminocyclopropane-1-carboxylic acid], which “root length inhibition (fold; ratio of average organ length in air to that in ACC)” value (Columbia wild-type seedlings) is on record?
A: Its value is 9.5 fold.

Q: What about the “root length inhibition (fold; ratio of average organ length in air to that in ACC)” value (WS wild-type seedlings) of the same molecule?
A: Its value is 12 fold.

Q: And the “root length inhibition (fold; ratio of average organ length in air to that in ACC)” value (quadruple mutant edf1-1 edf2-1 edf3-1 edf4-1 seedlings)?
A: Its value is “less than 7 fold”.

— patent publication US7169972B2, “Methods and compositions to modulate ethylene sensitivity” (The Salk Institute for Biological Studies, priority 2001, dated 2007)
